# Laboratory results from patent US20260248852A1, “SYNTHETIC ANTIGEN RECEPTORS FOR COVALENT IMMUNE RECRUITERS AND METHODS AND USES THEREOF” (McMaster University, priority 2022, published 2026).
# “Also recorded” adds a separate entry of the source.
# Experiments:
# [1] = test system: Anti-DNP TAC T cells (anti-DNP scFv containing T-cells); test: Labeling of Anti-DNP TAC ABT cells with CIR/(N)CIR, Streptavidin-PE flow cytometry; format: binding, human; conditions: 1 uM; for labeling time course (binding): 10 nM, 100 nM, up to 3 hours at room temperature, washed; for covalent binding and labeling of T cells (Streptavidin-PE): Anti-DNP TAC ABT cells, overnight at 4 degrees, washed 3 times
# Method: (§1) Labeling with CIR/(N)CIR: ABT-cells were labelled overnight at 4 degrees in T-cell media with 1 uM of either DNP-Acyl Imidazole-Desthiobiotin or DNP-Desthiobiotin. DNP-Glycine competitor was also added to some conditions with at 200 uM as a competitor to assess labelling specificity. After the overnight incubation the samples were washed 3 times with FACs buffer to remove any non-covalently bound molecule and stained with Streptavidin-PE to assess labelling. The samples were also stained with near IR Live/Dead, anti-CD4 Pacific Blue, and anti-CD8 Alexa fluor 700 to allow for appropriate gating on live ABT-cells. The samples were assessed for Streptavidin-PE labelling via flow cytometry.
# For labeling time-course studies, T-cells were incubated with varying concentrations (10 nM, 100 nM, 1 uM) of either DNP-Acyl Imidazole-Desthiobiotin or DNP-Desthiobiotin for different time periods up to 3 hours at room temperature in FACs buffer. The “0” hour time point was the final time point and accounts for the 5-minute period needed to spike in CIR/(N)CIR and spin down to stop labelling. After adding DNP-Acyl Imidazole-Desthiobiotin or DNP-Desthiobiotin to all time points the cells were washed 3 times and stained for flow cytometry analysis as described above.
# as §1, with “either DNP-SuFEx-Desthiobiotin,” for “either”, “αβ T-cells.” for “ABT-cells.”
# [2] = test system: Anti-DNP DAP12-SAR GDT cells; test: Labeling time course of Anti-DNP DAP12-SAR GDT cells with CIR/(N)CIR; format: binding, human; conditions: 10 nM, 100 nM, 1 uM, up to 3 hours
# Method: (§2) Engineered GDT-cells: PBMCs were seeded at 4E6 cells per well in a 24 well G-Rex plate in the presence of 1 ug/ml zoledronate and 1.5 ng/ml human IL2. Three days later, the cells were incubated overnight in a 24 well non tissue culture treated plate that was pre coated with retronectin and retrovirus supernatant containing viruses encoding either the Anti-DNP DAP12-SAR or the Anti-DNP CD28 CAR. The cells were then transferred back to the G-Rex plate and cultured for a further 11 days at which point, the cell product was collected, CD4/CD8 T cells were removed by magnetic selection and the purified engineered GDT cells were cryopreserved.
# (§3) Flow cytometry: To assess the fraction of GDT cells which express the Anti-DNP synthetic antigen receptor, the cells were stained with the following antibodies/fluorophores: Myc biotin, streptavidin PE, vδ2 APC, TCR ab FITC, and CD3 BV605. The CD3 BV605, TCR ab FITC, and Vδ2 APC were used to specifically gate on Vδ2 GDT-cells. The anti-Myc biotin and streptavidin PE secondary were used to assess transduction level.
# (§4) For labeling time-course studies, T-cells were incubated with varying concentrations (10 nM, 100 nM, 1 uM) of either DNP-Acyl Imidazole-Desthiobiotin or DNP-Desthiobiotin for different time periods up to 3 hours at room temperature in FACs buffer. […]
# [3] = test system: Anti-DNP CD28 CAR GDT cells; test: Labeling time course of Anti-DNP CD28 CAR GDT cells with CIR/(N)CIR; format: binding, human; conditions: 10 nM, 100 nM, 1 uM, up to 3 hours
# Method: as §2, §3, §4
# [4] = test system: PSMA transduced HEK-293 cells; test: CD69 upregulation of DNP-TAC T cells following stimulation with HEK-293 PSMA cells; format: cell-based, human; conditions: DNP-TAC T cells pre labelled 6 hours; co-culture overnight
# Method: The cells were co-cultured together overnight at 37 degrees. To stop the activation, 20 mM EDTA was added and incubated for 15 minutes. The cells were spun down, media was aspirated, and the cells were stored in 200 μL of cRPMI at 4 degrees prior to staining. The cells were stained with Live-Dead Zombie Aqua, anti-CD3 BV605, anti-CD4 Pacific Blue, anti-CD8 Alexa Fluor 700, anti-NGFR Viobright FITC, and anti-CD69 BV650. Upon staining the cells were run on the Beckman Coulter Cytoflex flow cytometer and analyzed for CD69 expression.
# [5] = test system: PSMA transduced HEK-293 cells; test: IFN-gamma / TNF-alpha production of Anti-DNP TAC ABT cells following stimulation with HEK-293 PSMA cells; format: cell-based, human; conditions: Anti-DNP TAC ABT cells prelabelled 6 hours; co-culture 4 hours
# Method: The cells were co-cultured together for 4 hours at 37 degrees. Golgi plug was added prior to the co-incubation to prevent cytokine secretion. To stop the activation 20 mM EDTA was added and incubated for 15 minutes. The cells were spun down, media was aspirated, and the cells were stored in 200 μL of cRPMI overnight at 4 degrees. The next day, the cells were surface stained with anti-CD4 Pacific Blue, anti-CD8 Alexa Fluor 700, and anti-NGFR Viobright FITC. The cells were then fixed and permeabilized using a fix/perm buffer solution. The cells were then intracellularly stained with anti-CD3 BV605, anti-TNF-alpha PE-CY7, and anti-IFN-gamma APC. Cells were then run on the Beckman Coulter Cytoflex flow cytometer. The percent of cells positive for TNF-alpha and IFN-gamma, as well as cells positive for both were recorded in the table for the separate CD4 and CD8 T-cell populations.
# [6] = test system: PSMA-positive LNCaP cells; test: Anti-DNP TAC ABT cell mediated killing of LNCaP cells (Incucyte); format: cell-based, human
# Method: Measuring T cell mediated killing of LNCaP cells: LNCaP prostate cancer cells, which are prostate specific membrane antigen (PSMA) positive, were engineered with Nuclight Red lentivirus to produce cells with nuclear localized red fluorescence to allow for ease of imaging in these experiments. […] The 3 components were co-cultured for 3 days with 4 images per well taken every 6 hours. Samples were run in triplicate. The number of LnCap cells per well at each time point was calculated using the Incucyte cell by cell analysis software and plotted. The area under the growth curve was used as a metric for tumor cell growth for this figure. The larger the area, the greater the tumor cell growth that occurred over the 3 days. The area under the curve for the LnCap control and each condition were used to calculate the % cytotoxicity.
# [7] = test system: PSMA-positive LNCaP cells; test: Anti-DNP GDT cell mediated killing of LNCaP cells (Incucyte); format: cell-based, human
# Method: Measuring T cell mediated killing of LNCaP cells: LNCaP prostate cancer cells, which are prostate specific membrane antigen (PSMA) positive, were engineered with Nuclight Red lentivirus to produce cells with nuclear localized red fluorescence to allow for ease of imaging in these experiments. […] Samples were run in triplicate. The number of LNCaP cells per well at each time point was calculated using the Incucyte cell by cell analysis software and plotted. The area under the growth curve was used as a metric for tumor cell growth for this figure. The larger the area, the greater the tumor cell growth that occurred over the 3 days. The area under the curve for the LNCaP control and each condition were used to calculate the % cytotoxicity.
# 293-PSMA cells [8] = test: CD69 and Nur77 expression of activated ABT cells with 293-PSMA cells; format: cell-based, human; conditions: Anti-DNP TAC-T cells; 10 nM and 1 nM
# Text: Cells were stained for surface marker expression via Pacific Blue-conjugated mouse anti-human CD4, and AlexaFluor700-conjugated mouse anti-human CD8a, VioBright FITC-conjugated mouse anti-human NGFR, and anti-huCD69, fixed and permeabilized in Permiabilization concentrate diluted in permeabilization diluent, and stained intracellularly with PE-conjugated mouse anti-mouse Nur77.
# [9] = test system: HEK293-PSMA cells (PSMA expressing); test: Cytokine production of engineered ABT cells following stimulation with HEK293-PSMA cells; format: cell-based, human
# Method: Measuring cytokine production following stimulation with HEK-293 cells: In a 96 well round bottom plate, 4E5 HEK293-PSMA cells (PSMA expressing) or HEK293-WT cells were incubated with 4E5 Anti-DNP TAC ABT cells, Anti-DNP DAP12 SAR ABT cells, or Anti-CD28 CAR ABT-cells. […] To stop the activation 20 mM EDTA was added and incubated for 15 minutes. Cells were stained for surface expression of CD4 and CD8, fixed and permeabilized in Cytofix/Cytoperm buffer, and stained with APC-conjugated mouse anti-human interferon-gamma, and FITC-conjugated mouse anti-human tumor necrosis factor-alpha. Cells were then run on the Beckman Coulter Cytoflex flow cytometer. The percent of cells positive for tumor necrosis factor-alpha and interferon-gamma for CD4 and CD8 T-cell populations were graphed separately showing the same overall trends.
# 293-PSMA cells [10] = test: Proliferation of adapter functionalized engineered ABT cells (CellTrace Violet); format: cell-based, human
# Method: Each engineered T cell was also cultured in media alone as a control to compare to. All proliferation assay samples were incubated for 3 days at 37° C. and 5% CO2. Cells were then stained with Live/Dead Fixable Near-IR stain, PerCP-Cy5.5-conjugated mouse anti-human CD8a, Alexa Fluor 700-conjugated mouse anti-human CD4, VioBright FITC-conjugated mouse anti-human NGFR, and BV605-conjugated mouse anti-human CD3. Flow cytometry data were acquired.
compound,measurement,setting,value
CC1NC(=O)NC1CCCCCC(=O)NCCOCCOCCOCCOC(=O)n1cnc(CCNC(=O)CNc2ccc([N+](=O)[O-])cc2[N+](=O)[O-])c1 (stereo not shown) [DNP-Acyl Imidazole-Desthiobiotin],labeling time course (binding),[1],rapid covalent binding
same,time to maximal loading of DNP-TAC T cells,[1],several hours
same,time until all Anti-DNP TAC T cells are loaded,[1],≤ 30 min
same,covalent binding and labeling of T cells (Streptavidin-PE),[1],can covalently bind and label
same,labeling time course (binding),[2],rapid covalent binding
same,labeling time course (binding),[3],rapid covalent binding
"CC1NC(=O)NC1CCCCCC(=O)NCCOCCOC(=O)NCCOCCNC(=O)CNc1ccc([N+](=O)[O-])cc1[N+](=O)[O-] (stereo not shown) [DNP-Desthiobiotin, reference compound]",labeling time course (binding),[1],complete absence of binding
same,covalent binding and labeling of T cells (Streptavidin-PE),[1],cannot
same,labeling time course (binding),[2],minimal binding
same,labeling time course (binding),[3],minimal binding
"O=C(O)CC[C@H](NC(=O)N[C@@H](CCCCNC(=O)NCCOCCOCCOCCOCCOCCOCCOCCOC(=O)NCCOCCNC(=O)CNc1ccc([N+](=O)[O-])cc1[N+](=O)[O-])C(=O)O)C(=O)O [PSMA-(N)CIR, DNP-Glutamate-Urea-Lysine, reference compound]",T cell activation based on upregulation of CD69,[4],failed to demonstrated any evidence of activation
same,production of IFN-gamma and TNF-alpha,[5],failed to demonstrated any evidence of activation
same,killing of LNCaP cells,"[6]; E:T 8:1, 15.63 nM to 125 nM, 3 days",unable to direct T cell cytotoxicity; also recorded: did not promote killing of LNCaP cells at any concentration
same,concentration effective at engaging tumor killing,"[6]; E:T 8:1, 3 days",> 125 nM
same,killing of LNCaP cells at limiting concentration,"[7]; Anti-DNP CD28 CAR GDT cells, 10 nM or 1 nM adapter",inability of the PSMA-(N)CIR to effectuate killing
same,tumor killing over a range of concentrations,"[7]; Anti-DNP CD28 CAR GDT cells, 15 nM to 250 nM",diminished at lower levels
same,killing of LNCaP cells,"[7]; Anti-DNP CD28 CAR GDT cells, 125 nM adapter",could direct T cell cytotoxicity; also recorded: displayed tumor growth control
same,killing of LNCaP cells,"[7]; Anti-DNP DAP12-SAR GDT cells, 125 nM adapter",unable to direct T cell cytotoxicity
same,adapter concentration at which tumor killing is observed,[7]; Anti-DNP DAP12 SAR GDT cells,> 125 nM
same,killing of LNCaP cells,"[7]; Anti-DNP DAP12 SAR GDT cells, 250 nM (highest concentration)",only weak killing
same,killing of LNCaP cells after preincubation and wash,"[7]; Anti-DNP DAP12 SAR and Anti-DNP CD28 CAR GDT cells, 1 uM adapter for 6 hours, washed, then co-culture",Only the T cells incubated with the PSMA-CIR retained the ability to kill
same,killing of LNCaP cells,"[7]; CD28 CAR GDT cells, 10 nM adapter",unable to elicit any killing
same,LNCaP killing over a range of concentrations,"[7]; both Anti-DNP DAP12-SAR GDT cells and Anti-DNP CD28 CAR GDT cells, 15.6 nM-250 nM",killing diminished with lower concentrations
same,"T cell activation (Nur77, CD69)",293-PSMA cells [8],only the PSMA-CIR could elicit T cell activation
same,cytokine production,"[9]; CD28-CAR T cells, highest concentration (100 nM)",equivalent levels of cytokine production
same,cytokine production,"[9]; DAP12-SAR T cells, 1, 10, 100 nM",some cytokine production was observed with higher concentrations; also recorded: could be activated by both CIR and (N)CIR
same,cytokine production,"[9]; TAC T cells, 1, 10, 100 nM",no cytokine production
same,T cell proliferation (percent divided),"293-PSMA cells [10]; Anti-DNP12 SAR T cells, 1 nM or 10 nM",did not proliferate
same,T cell proliferation (percent divided),"293-PSMA cells [10]; Anti-DNP DAP12 SAR T cells, 1 nM, 10 nM, or 100 nM",little proliferation
same,T cell proliferation (percent divided),"293-PSMA cells [10]; Anti-DNP DAP12 SAR T cells, 100 nM",modest proliferation
same,T cell proliferation (percent divided),"293-PSMA cells [10]; Anti-DNP TAC T cells, 1, 10, 100 nM, 3 days",failed to proliferate above background; also recorded: little proliferation
